# Legend:
# HBL1 (ABC DLBCL) = experiment: MTT cell proliferation, lymphoma; assay type: cell-based; settings: Homo sapiens, 72 h; for activity at 1 µM: of untreated cells, read-out: Proliferating cells (%); for IC50: MTT
# Protocol: (§1) All compounds were further tested at the concentration of 1 μM on four cell lines derived from distinct lymphoma histotypes, plus two with secondary resistance to the PI3Kδ inhibitor idelalisib[51] or to the BTK inhibitor ibrutinib.[52] […] For comparison, the same experiments were conducted using compound 3, but the response to it was minimal, and thus it was not considered further.
# (§2) Established human cell lines derived from germinal center B-cell (GCB) (SU-DHL-10), activated B-cell (ABC) (HBL1) diffuse large B-cell lymphoma (DLBCL), mantle cell lymphoma (MCL) (MINO), splenic marginal zone lymphoma (SMZL) (parental VL51, VL51 idelalisib resistant clone, VL51 ibrutinib resistant clone) were cultured in culture RPMI-1640 media supplemented with fetal bovine serum (10%), penicillin–streptomycin–neomycin (∼5,000 units of penicillin, 5 mg of streptomycinm and 10 mg of neomycin/mL, Sigma), and L-glutamine (1%). Vincristine sulfate was purchased from Sigma-Aldrich. Cell line identities were confirmed by CellCheck test (IDEXX, BioResearch, Ludwigsburg, Germany). All compounds were dissolved in dimethyl sulfoxide to obtain a stock concentration of 10 mM.
# (§3) The antiproliferative activity of all compounds was assessed by using the 3-(4.5-dimethylthiazolyl-2)-2,5-diphenyltetrazolium bromide (MTT) test. Cells were seeded in 96-well plates (nontissue culture treated) at a density of 1 × 10^5 cells/mL and treated with a single concentration of 1 μM for 72 h. […] In this case, cells were treated in triplicate with serially diluted compounds in the appropriate tissue culture medium at a range of 40–10 000 nM. Cells were incubated for 72 h at 37 °C, 5% CO2. Wells containing medium only were included on each plate and served as blanks for absorbance readings. MTT (Sigma, Buchs, Switzerland) was prepared as a 5 mg/mL stock solution in phosphate buffered saline (PBS) and filter-sterilized. MTT solution (22 μL) was added to each well, and tissue culture plates were incubated at 37 °C for 4 h. Cells were then lysed with 25% sodium dodecyl sulfate lysis buffer, and absorbance was read at 570 nm using a Beckman Coulter-AD340 plate reader.
# MINO (MCL) = experiment: MTT cell proliferation, lymphoma; assay type: cell-based; settings: Homo sapiens, 72 h; for activity at 1 µM: of untreated cells, read-out: Proliferating cells (%); for IC50: MTT
# Protocol: as §1, §2, §3
# SU-DHL-10 (GCB DLBCL) = experiment: MTT cell proliferation, lymphoma; assay type: cell-based; settings: Homo sapiens, SU-DHL10, 72 h; for activity at 1 µM: of untreated cells, read-out: Proliferating cells (%); for IC50: MTT
# Protocol: as §1, §2, §3
# VL51 (MZL) = experiment: MTT cell proliferation, lymphoma; assay type: cell-based; settings: Homo sapiens, 72 h; for activity at 1 µM: of untreated cells, read-out: Proliferating cells (%); for IC50: MTT
# Protocol: as §1, §2, §3
# VL51 ibrutinib-resistant = experiment: MTT cell proliferation, lymphoma; assay type: cell-based; settings: Homo sapiens, 72 h, of untreated cells, read-out: Proliferating cells (%)
# Protocol: as §1, §2, §3
# [1] = test system: VL51 idelalisib-resistant; experiment: MTT cell proliferation, lymphoma; assay type: cell-based; settings: Homo sapiens, 72 h, of untreated cells, read-out: Proliferating cells (%)
# Protocol: as §1, §2, §3
# tubulin colchicine site = tubulin colchicine site (Bos taurus, UniProt P81947+Q6B856); experiment: Inhibition of [3H]colchicine binding to tubulin; settings: read-out: inhibition of colchicine binding % inhibition ± SD
# Sequence of tubulin colchicine site (Q6B856 whole entry): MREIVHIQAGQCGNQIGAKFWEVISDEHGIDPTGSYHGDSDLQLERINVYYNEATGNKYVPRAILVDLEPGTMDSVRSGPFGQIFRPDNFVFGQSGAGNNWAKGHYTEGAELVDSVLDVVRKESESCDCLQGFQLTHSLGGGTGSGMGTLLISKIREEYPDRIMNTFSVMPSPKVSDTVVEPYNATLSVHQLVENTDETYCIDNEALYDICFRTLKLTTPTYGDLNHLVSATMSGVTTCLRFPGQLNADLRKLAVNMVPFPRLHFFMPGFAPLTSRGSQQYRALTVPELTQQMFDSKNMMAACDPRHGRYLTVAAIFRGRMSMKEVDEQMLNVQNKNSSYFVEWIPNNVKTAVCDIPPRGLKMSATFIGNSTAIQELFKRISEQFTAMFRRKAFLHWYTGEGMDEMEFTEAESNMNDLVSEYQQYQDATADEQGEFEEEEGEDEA
# Sequence of tubulin colchicine site (P81947 whole entry): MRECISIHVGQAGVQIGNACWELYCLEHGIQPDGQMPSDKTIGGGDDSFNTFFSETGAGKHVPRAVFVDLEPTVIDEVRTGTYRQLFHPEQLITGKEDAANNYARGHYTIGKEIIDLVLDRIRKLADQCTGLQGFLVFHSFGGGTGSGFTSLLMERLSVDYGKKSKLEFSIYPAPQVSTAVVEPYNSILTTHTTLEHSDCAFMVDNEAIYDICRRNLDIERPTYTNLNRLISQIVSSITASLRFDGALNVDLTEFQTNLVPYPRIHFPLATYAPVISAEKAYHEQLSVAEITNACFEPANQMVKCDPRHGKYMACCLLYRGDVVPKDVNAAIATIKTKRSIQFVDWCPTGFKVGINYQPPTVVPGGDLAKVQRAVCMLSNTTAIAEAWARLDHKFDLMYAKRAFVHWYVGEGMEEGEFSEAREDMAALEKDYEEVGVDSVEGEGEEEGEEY
# Protocol: Reaction mixtures in the assembly assay contained 9 μM (0.9 mg/mL) tubulin in the assembly assay, and in the colchicine assay they contained 0.5 μM tubulin, 5.0 μM [^3H]colchicine, and 5.0 μM inhibitor.
# Analysis of effects on tubulin polymerization was performed by turbidimetry at 350 nm in recording spectrophotometers equipped with electronic temperature controllers as described in detail elsewhere.[71] […] The binding of [^3H]colchicine to tubulin was perfomed as described in detail previously[72] except that the tubulin concentration was reduced from 0.1 mg/mL to 0.05 mg/mL and only one, instead of two, DEAE-cellulose filter was used for each reaction mixture.
# bovine brain tubulin = bovine brain tubulin (Bos taurus, UniProt P81947+Q6B856); experiment: Inhibition of tubulin assembly (turbidimetry); assay type: biochemical; settings: 9 μM (0.9 mg/mL) tubulin, 20 min at 30 °C; read-out: inhibition of tubulin assembly IC50 ± SD
# Sequence of bovine brain tubulin (Q6B856 whole entry): as the sequence (Q6B856 whole entry) above
# Sequence of bovine brain tubulin (P81947 whole entry): as the sequence (P81947 whole entry) above
SMILES,activity at 1 µM (HBL1 (ABC DLBCL)),activity at 1 µM (MINO (MCL)),activity at 1 µM (SU-DHL-10 (GCB DLBCL)),activity at 1 µM (VL51 (MZL)),activity at 1 µM (VL51 ibrutinib-resistant),activity at 1 µM [1],inhibition at 5 µM (tubulin colchicine site),IC50 (HBL1 (ABC DLBCL)),IC50 (MINO (MCL)),IC50 (SU-DHL-10 (GCB DLBCL)),IC50 (VL51 (MZL)),IC50 (bovine brain tubulin)
"CCOC(=O)c1c(Cl)c2c(n1Cc1ccc(OC)cc1)-c1oncc1CCC2 [Compound 73, Ethyl 7-Chloro-9-(4-methoxybenzyl)-4,5,6,9-tetrahydropyrrolo[2′,3′:3,4]cyclohepta[1,2-d][1,2]oxazole-8-carboxylate]",107%,99.5%,87.4%,113%,102%,126%,,,,,,
"CCOC(=O)c1cc2c(n1Cc1ccccc1)-c1oncc1CCC2 [Compound 61, Ethyl 9-Benzyl-4,5,6,9-tetrahydropyrrolo[2′,3′:3,4]cyclohepta[1,2-d][1,2]oxazole-8-carboxylate]",124%,106%,65.2%,93.3%,118%,117%,,,,,,
"CCOC(=O)c1cc2c(n1Cc1cc(OC)ccc1OC)-c1oncc1CCC2 [Compound 65, Ethyl 9-(2,5-Dimethoxybenzyl)-4,5,6,9-tetrahydropyrrolo[2′,3′:3,4]cyclohepta[1,2-d][1,2]oxazole-8-carboxylate]",111%,107%,71.6%,86.2%,94%,96.4%,,,,,,
"CCOC(=O)c1c(Cl)c2c(n1C)-c1oncc1CCC2 [Compound 69, Ethyl 7-Chloro-9-methyl-4,5,6,9-tetrahydropyrrolo[2′,3′:3,4]cyclohepta[1,2-d][1,2]oxazole-8-carboxylate]",103%,116%,78.5%,93.8%,110%,121%,,,,,,
"CCOC(=O)c1cc2c(n1Cc1ccc(OC)cc1)-c1oncc1CCC2 [Compound 64, Ethyl 9-(4-Methoxybenzyl)-4,5,6,9-tetrahydropyrrolo[2′,3′:3,4]cyclohepta[1,2-d][1,2]oxazole-8-carboxylate]",125%,112%,66.3%,87.4%,102%,116%,,,,,,
"O=S(=O)(c1ccccc1)n1ccc2c1-c1oncc1CCC2 [Compound 51, 9-(Phenylsulfonyl)-4,5,6,9-tetrahydropyrrolo[2′,3′:3,4]cyclohepta[1,2-d][1,2]oxazole]",118%,104%,110%,88.1%,121%,118%,,,,,,
"COc1cc(Cn2ccc3c2-c2oncc2CCC3)cc(OC)c1OC [Compound 59, 9-(3,4,5-Trimethoxybenzyl)-4,5,6,9-tetrahydropyrrolo[2′,3′:3,4]cyclohepta[1,2-d][1,2]oxazole]",114%,99%,94.6%,97.6%,92.1%,112%,,,,,,
"CCOC(=O)c1c(Cl)c2c(n1Cc1cccc(OC)c1)-c1oncc1CCC2 [Compound 72, Ethyl 7-Chloro-9-(3-methoxybenzyl)-4,5,6,9-tetrahydropyrrolo[2′,3′:3,4]cyclohepta[1,2-d][1,2]oxazole-8-carboxylate]",105%,110%,76.9%,107%,103%,128%,,,,,,
"COc1ccc(/C=C\c2cc(OC)c(OC)c(OC)c2)cc1O [CA-4, combretastatin A-4, reference compound]",,,,,,,97 ± 0.9%,,,,,
"COc1cccc(Cn2ccc3c2-c2oncc2CCC3)c1 [Compound 55, 9-(3-Methoxybenzyl)-4,5,6,9-tetrahydropyrrolo[2′,3′:3,4]cyclohepta[1,2-d][1,2]oxazole]",127%,115%,80.3%,112%,125%,133%,,,,,,
"Cn1ccc2c1-c1oncc1CCC2 [Compound 52, 9-Methyl-4,5,6,9-tetrahydropyrrolo[2′,3′:3,4]cyclohepta[1,2-d][1,2]oxazole]",101%,104%,70.2%,87.4%,100%,107%,,,,,,
"c1ccc(Cn2ccc3c2-c2oncc2CCC3)cc1 [Compound 53, 9-Benzyl-4,5,6,9-tetrahydropyrrolo[2′,3′:3,4]cyclohepta[1,2-d][1,2]oxazole]",109%,109%,70.2%,103%,125%,128%,,,,,,
"COC(=O)c1cc2c(n1Cc1ccccc1)-c1oncc1CCC2 [Compound 68, Methyl 9-Benzyl-4,5,6,9-tetrahydropyrrolo[2′,3′:3,4]cyclohepta[1,2-d][1,2]oxazole-8-carboxylate]",109%,98.8%,78.9%,94.5%,120%,123%,,,,,,
"COc1ccc(OC)c(Cn2ccc3c2-c2oncc2CCC3)c1 [Compound 57, 9-(2,5-Dimethoxybenzyl)-4,5,6,9-tetrahydropyrrolo[2′,3′:3,4]cyclohepta[1,2-d][1,2]oxazole]",29.6%,8.5%,11%,36.5%,37%,34.3%,38 ± 0.7%,600 nM,400 nM,300 nM,200 nM,3200 ± 60 nM
"COc1ccccc1Cn1ccc2c1-c1oncc1CCC2 [Compound 54, 9-(2-Methoxybenzyl)-4,5,6,9-tetrahydropyrrolo[2′,3′:3,4]cyclohepta[1,2-d][1,2]oxazole]",122%,112%,141%,120%,112%,136%,,,,,,
"COc1ccc(Cn2ccc3c2-c2oncc2CCC3)cc1 [Compound 56, 9-(4-Methoxybenzyl)-4,5,6,9-tetrahydropyrrolo[2′,3′:3,4]cyclohepta[1,2-d][1,2]oxazole]",123%,109%,74.6%,110%,110%,127%,,,,,,8200 ± 500 nM
"CCOC(=O)c1cc2c(n1C)-c1oncc1CCC2 [Compound 60, Ethyl 9-Methyl-4,5,6,9-tetrahydropyrrolo[2′,3′:3,4]cyclohepta[1,2-d][1,2]oxazole-8-carboxylate]",146%,112%,61.7%,108%,125%,115%,,,,,,
"CCOC(=O)c1c(Cl)c2c(n1Cc1ccccc1OC)-c1oncc1CCC2 [Compound 71, Ethyl 7-Chloro-9-(2-methoxybenzyl)-4,5,6,9-tetrahydropyrrolo[2′,3′:3,4]cyclohepta[1,2-d][1,2]oxazole-8-carboxylate]",97%,55.9%,58.2%,58.8%,56.2%,52.2%,,> 5000 nM,3400 nM,2200 nM,2400 nM,
"CCOC(=O)c1c(Cl)c2c(n1Cc1cc(OC)ccc1OC)-c1oncc1CCC2 [Compound 74, Ethyl 7-Chloro-9-(2,5-dimethoxybenzyl)-4,5,6,9-tetrahydropyrrolo[2′,3′:3,4]cyclohepta[1,2-d][1,2]oxazole-8-carboxylate]",29%,9.8%,13.3%,40.4%,44.4%,37.7%,,1000 nM,800 nM,700 nM,500 nM,

# Reference: publication PMC7901646, “Pyrrolo[2′,3′:3,4]cyclohepta[1,2-d][1,2]oxazoles, a New Class of Antimitotic Agents Active against Multiple Malignant Cell Types” (Journal of Medicinal Chemistry, 2020)
